Assays:
[1] = system: rd1 mice expressing SNAP-mGluR2 in ON-BCs; test: Line pattern recognition (learned aversive association, iPad displays), SNAP-mGluR2 in ON-BCs; format: in vivo, mouse; conditions: in PBS, trained and tested within a week after intravitreal injection
Experimental: Modified active avoidance was assayed as previously described^19, using the Coulbourn shuttle box (H10-11M-SC), however, now iPad tablet screens were mounted onto the shuttle cage wall, each displaying one of two images that differed in orientation or distance between two lines but were otherwise of equal shape, size, and light intensity. The aversive image side was paired with a foot shock of 0.7 mA. Upon recall the light patterns were reversed to avoid a bias for location and time spent on each side was recorded. Adaptation was tested by dimming or brightening the display to different intensities.
As shown above, ^4×BGAG12,460:SNAP-mGluR2 in either RGCs or ON-BCs confers high sensitivity light perception. It was asked whether ^4×BGAG12,460:SNAP-mGluR2 would support patterned vision. The ability of treated and untreated rd1 mice to discriminate between two different line patterns in a learned negative association task was tested. The task is carried out in a 2-chamber arena, where the floor in each chamber is conductive and can apply an independent aversive mild foot shock. […] The mouse was trained for two days, during which a mild foot shock was given in one of the chambers. The line pattern associated with the foot shock was assigned randomly initially but then kept consistent for that animal throughout the 2 days of training. […]

[2] = system: rd1 mice expressing SNAP-mGluR2 in RGCs; test: 2-chamber light/dark light aversion test, SNAP-mGluR2 in RGCs; format: in vivo, mouse
Experimental: Mouse experiments were conducted under the express approval of the University of California Animal Care and Use Committee, wt mice (C57BL/6J) and rd1 mice (C3H) were purchased from the Jackson Laboratory and housed on a 12-h light/dark cycle with food and water ad libitum. cDNA encoding SNAP-mGluR2 was inserted in an established viral cassette under control of either the human synapsin promoter (hsyn-1) for expression in RGCs or a 4-copy concatemer of the mouse grm6 minimal promoter (4×grm6) for expression in ON-BCs and packaged in the AAV 2/2-4YF capsid. The vector, containing 10^10-10^12 viral genomes was delivered in a 2 µl volume to the vitreous of the rd1 mouse eye via microinjection. rAAV injections were at p30-p60 and in vivo and in vitro experiments at p90-p160. AAVs were produced as previously described.
Photoswitch compounds were synthesized using the protocol described in Broichhagen, J., et al. (2015) ACS Cent Sci 1, 383-393. Stock solution of […] BGAG12,460 (L-diastereomer) in 100% pharmaceutical grade DMSO (Cryoserv; Bioniche Pharma) was diluted 1:100 in sterile PBS for a final working solution of 1 mM in 1% DMSO. Working solutions were either prepared before administration, prepared in stock stored in the freezer and used as required, or salvaged from the recording bath and stored (either RT or freezer) for reuse. Application of BGAG12,460 or BGAG12 on retinal explants were performed in a volume of 200 μL at a concentration of 50 μM to 50 nM BGAG12,460 (in PBS with >1% DMSO). For in vivo behavioral experiments, a 2-μL volume of 1 mM or 3.5 μL (final vitreal concentration of […]) of BGAG12,460 solution (in PBS with 1% DMSO) was injected into eyes that treated with AAV>6 wks earlier). For in vivo concentration dependence experiments, the mouse eye was assumed to contain a volume of 5.3 μL and a 2-μL volume of 3.5 μM, 1.825 μM and 0.1825 μM BGAG12,460 solution (in PBS with 1% DMSO) was injected into eyes to obtain a final concentration of 1 μM, 500 nM and 50 nM^62. For hydrated slow release 5% pharmaceutical grade beta cyclodextrin (cyclodex) in PBS was mixed with BGAG12,460 for a final concentration of 3 μM and 2 μL were injected bilaterally into the mouse eye. MAG0460 was synthesized and administered in 2 μL at a concentration of 100 μM.
The 2-chamber light-dark passive avoidance test was performed. White light (wavelength range) at ˜100 μW cm^2 or either blue light (460/45 nm) or green light (535/50 nm) at 0.5-25 μW cm^2 was mounted above the chamber with homogeneously distributed light.
Animal movements were tracked using IR sensors on the shuttle box. Time spent in the light and dark chambers was measured and analyzed using Graphic State and Graphic State RT (Coulbourn Instruments).
Natural light aversion behavior was tested. […]

For `Nc1nc(OCc2ccc(CNC(=O)CCCC(=O)N[C@H](CCC(=O)N[C@H](CCC(=O)NCCOCCOCCOCCOCCOCCOCCOCCOCCOCCOCCOCCOCCC(=O)NCCNc3ccc(/N=N/c4ccc(NC(=O)CCC[C@@H](C[C@H](N)C(=O)O)C(=O)O)cc4)cc3)C(=O)NCCOCCOCCOCCOCCOCCOCCOCCOCCOCCOCCOCCOCCC(=O)NCCNc3ccc(/N=N/c4ccc(NC(=O)CCC[C@@H](C[C@H](N)C(=O)O)C(=O)O)cc4)cc3)C(=O)N[C@H](CCC(=O)NCCOCCOCCOCCOCCOCCOCCOCCOCCOCCOCCOCCOCCC(=O)NCCNc3ccc(/N=N/c4ccc(NC(=O)CCC[C@@H](C[C@H](N)C(=O)O)C(=O)O)cc4)cc3)C(=O)NCCOCCOCCOCCOCCOCCOCCOCCOCCOCCOCCOCCOCCC(=O)NCCNc3ccc(/N=N/c4ccc(NC(=O)CCC[C@@H](C[C@H](N)C(=O)O)C(=O)O)cc4)cc3)cc2)c2nc[nH]c2n1` [^4×BGAG12,460], which “line pattern recognition, parallel lines spaced 1 versus 6 cm” value [1] is on record?
The value was “spent also more time on the side of the non-aversive visual display”.

And the “dark preference three weeks after injection” value ([2]; in PBS intravitreal)?
The value was “disappeared”.

What about the “light aversion (time in dark versus illuminated chamber)” value ([2]; in PBS intravitreal, first week after injection, white screen 88 uW/cm^2) of the same compound?
The value was “spent more time in the dark chamber than in the illuminated chamber”.

What about the “light aversion at 0.2 μW/cm^2” value ([2]; intensity-response relation) of the same compound?
The value was “operating at chance”.

What about the “light intensity giving maximal light-aversion behavior” value ([2]; intensity-response relation) of the same compound?
Its value is 25 μW/cm^2.

— patent US12076329B2, “Compositions and methods for enhancing visual function” (The Regents of the University of California, priority 2020, dated 2024)
